System: Renilla luciferase HCV replicon cells (2209-23)
Assay: Renilla luciferase Assay (HCV replicon)
Type: cell-based, HCV; human hepatoma Huh7 cells
Conditions: 72 h; replicon cell line 2209-23, three days incubation; read-out: R. luciferase Activity IC50

Row | SMILES | IC50 [µM]
1 | Cc1cc(CN2C(=O)C(C3=NS(=O)(=O)c4c(CNS(C)(=O)=O)cccc43)=C(O)C2C(C)(C)C)ccc1F (stereo not shown) [II-38, N-{3-[5-tert-Butyl-1-(4-fluoro-3-methyl-benzyl)-4-hydroxy-2-oxo-2,5-dihydro-1H-pyrrol-3-yl]-1,1-dioxo-1H-1λ^6-benzo[d]isothiazol-7-ylmethyl}-methanesulfonamide] | 0.035
2 | CC(C)(C)[C@H]1C(O)=C(C2=NS(=O)(=O)c3c(CNS(N)(=O)=O)cccc32)C(=O)N1Cc1ccc(F)cc1 [II-41, Amino-sulfonic acid {3-[(S)-5-tert-butyl-1-(4-fluoro-benzyl)-4-hydroxy-2-oxo-2,5-dihydro-1H-pyrrol-3-yl]-1,1-dioxo-1H-1λ^6-benzo[d]isothiazol-7-ylmethyl}-amide] | 0.058
3 | CC(C)(C)[C@H]1C(O)=C(C2=NS(=O)(=O)c3c(OCS(N)(=O)=O)cccc32)C(=O)N1Cc1ccc(F)cc1 [II-64, {3-[(S)-5-tert-Butyl-1-(4-fluoro-benzyl)-4-hydroxy-2-oxo-2,5-dihydro-1H-pyrrol-3-yl]-1,1-dioxo-1H-1λ^6-benzo[d]isothiazol-7-yloxy}-methanesulfonamide] | 0.228
4 | Cc1cc(CN2C(=O)C(C3=NS(=O)(=O)c4c(CN(C)S(C)(=O)=O)cccc43)=C(O)[C@@H]2C(C)(C)C)ccc1F [II-77, N-{3-[(S)-5-tert-Butyl-1-(4-fluoro-3-methyl-benzyl)-4-hydroxy-2-oxo-2,5-dihydro-1H-pyrrol-3-yl]-1,1-dioxo-1H-1λ^6-benzo[d]isothiazol-7-ylmethyl}-N-methyl-methanesulfonamide] | 0.129
5 | CC(C)(C)[C@H]1C(O)=C(C2=NS(=O)(=O)c3c(OCS(C)(=O)=O)cccc32)C(=O)N1Cc1ccc(F)cc1 [II-81, (S)-5-tert-Butyl-1-(4-fluoro-benzyl)-4-hydroxy-3-(7-methanesulfonylmethoxy-1,1-dioxo-1H-1λ^6-benzo[d]isothiazol-3-yl)-1,5-dihydro-pyrrol-2-one] | 0.235
6 | CC(C)(C)[C@H]1C(O)=C(C2=NS(=O)(=O)c3c(CNS(=O)(=O)N4CCNCC4)cccc32)C(=O)N1Cc1ccc(F)cc1.O=C(O)C(F)(F)F [II-91, Piperazine-1-sulfonic acid {3-[(S)-5-tert-butyl-1-(4-fluoro-benzyl)-4-hydroxy-2-oxo-2,5-dihydro-1H-pyrrol-3-yl]-1,1-dioxo-1H-1λ^6-benzo[d]isothiazol-7-ylmethyl}-amide; compound with trifluoro-acetic acid] | 0.143

System: not given
Assay: not given
Conditions: not given

Row | melting point | SMILES
7 | 206 to 209 °C | CC(C)CCc1nc(C2=NS(=O)(=O)c3ccccc32)c(O)c2ccccc12
8 | > 275 °C | O=S1(=O)N=C(c2nc(Cc3ccc(F)cc3)c3ccc(F)cc3c2O)c2cccc(Cl)c21
9 | > 275 °C | CS(=O)(=O)Nc1cccc2c1S(=O)(=O)N=C2c1nc(Cc2ccc(F)cc2)c2ccccc2c1O
10 | 194 to 196 °C | COc1ccc(-c2cccc3c2S(=O)(=O)N=C3c2nc(Cc3ccc(F)cc3)c3ccccc3c2O)cn1
11 | > 275 °C | O=S1(=O)N=C(c2nc(Cc3ccc(F)cc3)c3ccc(F)cc3c2O)c2ccccc21
12 | 104 to 106 °C | O=C1C(C2=NS(=O)(=O)c3ccccc32)=C(O)[C@H](C2CCCCC2)N1Cc1ccccc1
13 | 124 to 137 °C | Cc1cc(CN2C(=O)C(C3=NS(=O)(=O)c4c(CNS(=O)(=O)N5CCC(S(C)(=O)=O)C5)cccc43)=C(O)[C@@H]2C(C)(C)C)ccc1F (stereo partly shown)
14 | 175 to 192 °C | CC(C)(C)[C@H]1C(O)=C(C2=NS(=O)(=O)c3c(CNS(=O)(=O)c4cccs4)cccc32)C(=O)N1Cc1ccc(F)cc1
15 | 235 to 238 °C | O=C1C(C2=NS(=O)(=O)c3ccccc32)=C(O)[C@H](C2CCCCC2)N1Cc1ccc(F)cc1.[Na]
16 | 69 to 78 °C | CC(C)(C)[C@H]1C(O)=C(C2=NS(=O)(=O)c3ccccc32)C(=O)N1CC1CCC1
17 | 200 °C (dec.) | CC(C)C[C@@H]1C(O)=C(C2=NS(=O)(=O)c3ccccc32)C(=O)N1Cc1ccc(F)cc1
18 | 114 to 119 °C | CC(C)(C)[C@H]1C(O)=C(C2=NS(=O)(=O)c3ccccc32)C(=O)N1Cc1ccc(F)c(Br)c1
19 | 85 to 92 °C | O=C1C(C2=NS(=O)(=O)c3ccccc32)=C(O)[C@H](Cc2ccccc2)N1Cc1ccc(F)cc1
20 | > 220 °C | CC(C)(C)C1C(O)=C(C2=NS(=O)(=O)c3ccccc32)C(=O)N1Cc1ccc(F)cc1 (stereo not shown)
21 | 71 to 85 °C | CC(C)(C)[C@H]1C(O)=C(C2=NS(=O)(=O)c3ccccc32)C(=O)N1Cc1ccc(F)c(C2CC2)c1
22 | > 250 °C | COc1ncc(-c2cccc3c2S(=O)(=O)N=C3C2=C(O)[C@H](C(C)(C)C)N(Cc3ccc(F)cc3)C2=O)cn1
23 | 179 to 213 °C | CC(C)(C)C1C(O)=C(C2=NS(=O)(=O)c3c(Cl)cccc32)C(=O)N1Cc1ccc(F)cc1 (stereo not shown)
24 | > 250 °C | CC(C)(C)C1C(O)=C(C2=NS(=O)(=O)c3c(OCC(N)=O)cccc32)C(=O)N1Cc1ccc(F)cc1 (stereo not shown)

Row | melting point | SMILES
25 | > 260 °C | CC(C)(C)[C@H]1C(O)=C(C2=NS(=O)(=O)c3c2cccc3-c2cnc(=O)[nH]c2)C(=O)N1Cc1ccc(F)cc1
26 | 102 to 105 °C | CC(C)(C)[C@H]1C(O)=C(C2=NS(=O)(=O)c3c(CNS(=O)(=O)C4CC4)cccc32)C(=O)N1Cc1ccc(F)cc1
27 | > 250 °C | CC(C)(C)[C@H]1C(O)=C(C2=NS(=O)(=O)c3c2cccc3-c2cn[nH]c2)C(=O)N1Cc1ccc(F)cc1
28 | 224 to 235 °C | COc1cccc2c1S(=O)(=O)N=C2C1=C(O)[C@H](C(C)(C)C)N(Cc2ccc(F)cc2)C1=O
29 | 118 to 124 °C | CC(C)(C)[C@H]1C(O)=C(C2=NS(=O)(=O)c3c(CNCC(N)=O)cccc32)C(=O)N1Cc1ccc(F)cc1
30 | 224 to 230 °C | CC(C)(C)[C@H]1C(O)=C(C2=NS(=O)(=O)c3c(CN4CCCS4(=O)=O)cccc32)C(=O)N1Cc1ccc(F)cc1
31 | 150 to 154 °C | CNC(=O)CN(Cc1cccc2c1S(=O)(=O)N=C2C1=C(O)[C@H](C(C)(C)C)N(Cc2ccc(F)cc2)C1=O)C(C)=O
32 | 121 to 126 °C | COc1cc(CN2C(=O)C(C3=NS(=O)(=O)c4c(CNS(C)(=O)=O)cccc43)=C(O)[C@@H]2C(C)(C)C)ccc1F
33 | 185 to 190 °C | CN(C)C(=O)CNc1cccc2c1S(=O)(=O)N=C2C1=C(O)[C@H](C(C)(C)C)N(Cc2ccc(F)cc2)C1=O
34 | 175 to 180 °C | CNC(=O)CNCc1cccc2c1S(=O)(=O)N=C2C1=C(O)[C@H](C(C)(C)C)N(Cc2ccc(F)cc2)C1=O
35 | 245 to 250 °C | CC(C)(C)[C@H]1C(O)=C(C2=NS(=O)(=O)c3c(NS(C)(=O)=O)cccc32)C(=O)N1Cc1ccc(F)cc1
36 | > 210 °C | CNC(=O)COc1cccc2c1S(=O)(=O)N=C2C1=C(O)[C@H](C(C)(C)C)N(Cc2ccc(F)cc2)C1=O
37 | 138 to 159 °C | CC(C)(C)[C@H]1C(O)=C(C2=NS(=O)(=O)c3c(CNS(C)(=O)=O)cccc32)C(=O)N1Cc1ccc(F)c(Br)c1
38 | 96 to 112 °C | CC(C)(C)[C@H]1C(O)=C(C2=NS(=O)(=O)c3c(CNS(=O)(=O)c4ccccc4)cccc32)C(=O)N1Cc1ccc(F)cc1
39 | 99 to 106 °C | CC(C)COc1cccc2c1S(=O)(=O)N=C2C1=C(O)[C@H](C(C)(C)C)N(Cc2ccc(F)cc2)C1=O
40 | 116 to 126 °C | CN(C)S(=O)(=O)Oc1cccc2c1S(=O)(=O)N=C2C1=C(O)[C@H](C(C)(C)C)N(Cc2ccc(F)cc2)C1=O
41 | 155 to 165 °C | CNS(=O)(=O)COc1cccc2c1S(=O)(=O)N=C2C1=C(O)[C@H](C(C)(C)C)N(Cc2ccc(F)cc2)C1=O
42 | 98 to 99.8 °C | CCC(=O)N(Cc1cccc2c1S(=O)(=O)N=C2C1=C(O)[C@H](C(C)(C)C)N(Cc2ccc(F)c(C)c2)C1=O)S(C)(=O)=O

Row | SMILES | melting point
43 | Cc1nc(S(=O)(=O)NCc2cccc3c2S(=O)(=O)N=C3C2=C(O)[C@H](C(C)(C)C)N(Cc3ccc(F)cc3)C2=O)cn1C.O=C(O)C(F)(F)F | 110 to 116 °C
44 | Cc1cc(CN2C(=O)C(C3=NS(=O)(=O)c4c(CNS(=O)(=O)N5CCNCC5)cccc43)=C(O)[C@@H]2C(C)(C)C)ccc1F.O=C(O)C(F)(F)F | 135 to 151 °C
45 | CC(C)(C)[C@H]1C(O)=C(C2=NS(=O)(=O)c3c(OCS(C)(=O)=O)cccc32)C(=O)N1Cc1ccc(F)cc1 [II-81, (S)-5-tert-Butyl-1-(4-fluoro-benzyl)-4-hydroxy-3-(7-methanesulfonylmethoxy-1,1-dioxo-1H-1λ^6-benzo[d]isothiazol-3-yl)-1,5-dihydro-pyrrol-2-one] | 143 to 151 °C
46 | CC(C)(C)[C@H]1C(O)=C(C2=NS(=O)(=O)c3c(CNS(=O)(=O)N4CCNCC4)cccc32)C(=O)N1Cc1ccc(F)cc1.O=C(O)C(F)(F)F [II-91, Piperazine-1-sulfonic acid {3-[(S)-5-tert-butyl-1-(4-fluoro-benzyl)-4-hydroxy-2-oxo-2,5-dihydro-1H-pyrrol-3-yl]-1,1-dioxo-1H-1λ^6-benzo[d]isothiazol-7-ylmethyl}-amide; compound with trifluoro-acetic acid] | 95 to 115 °C
